Our source for the T/C values is PubChem BioAssay AID328 (DTP/NCI, 2004).

Where “and” joins values, the source holds several entries; their conditions need not be identical. Equal entries are not always repeated. Inconclusive results and toxic doses are left out.

This assay deals with BDF1 mice, P388 leukemia ip, median survival T/C. In words: NCI In Vivo Anticancer Drug Screen. Data for tumor model P388 Leukemia (intraperitoneal) in B6D2F1 (BDF1) mice. Conditions: endpoint: median survival time, higher = longer survival. The essentials: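 Vehicle-dosed animals serve as the reference; survival of compound-dosed, tumour-implanted mice is divided by it.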
Where [1] appears, read: dose: 100.0 mg/kg/injection, schedule: Q01DX009 (ip), vehicle: saline with Tween-80.
Where [2] appears, read: dose: 100.0 mg/kg/injection, schedule: Q04DX003 (ip), vehicle: Klucel (hydroxypropylcellulose) (HPC).
[3] abbreviates: dose: 200.0 mg/kg/injection, schedule: Q01DX009 (ip), vehicle: saline with Tween-80.
The mark [4] stands for this setting: dose: 400.0 mg/kg/injection, schedule: Q04DX003 (ip), vehicle: Klucel (hydroxypropylcellulose) (HPC).
[5] abbreviates: dose: 6.25 mg/kg/injection, schedule: Q04DX003 (ip), vehicle: saline.
The mark [6] stands for this setting: dose: 12.5 mg/kg/injection, schedule: Q04DX003 (ip), vehicle: saline.
The mark [7] stands for this setting: dose: 50.0 mg/kg/injection, schedule: Q01DX009 (ip), vehicle: saline with Tween-80.
Setting [8] is: dose: 50.0 mg/kg/injection, schedule: Q01DX005 (ip), vehicle: saline.
The mark [9] stands for this setting: dose: 200.0 mg/kg/injection, schedule: Q04DX003 (ip), vehicle: Klucel (hydroxypropylcellulose) (HPC).
Setting [10] is: dose: 100.0 mg/kg/injection, schedule: Q04DX003 (ip), vehicle: saline with Tween-80.
The mark [11] stands for this setting: dose: 200.0 mg/kg/injection, schedule: Q04DX003 (ip), vehicle: saline with Tween-80.

`O=c1cc2cccccc-2cc1O`: the T/C runs as follows: (dose: 10.0 mg/kg/injection, schedule: Q01DX009 (ip), vehicle: saline with Tween-80) 104 % of control; (dose: 20.0 mg/kg/injection, schedule: Q01DX009 (ip), vehicle: saline with Tween-80) 113 % of control; (dose: 40.0 mg/kg/injection, schedule: Q01DX009 (ip), vehicle: saline with Tween-80) 113 % of control.
Regarding `ClC1=C(Br)C(Br)(Br)C(=C(Br)Br)C1(Br)Br`, the T/C was 100 % of control under setting [1]; 90 % of control under setting [2]; 109 % of control under setting [3]; 104 % of control (dose: 400.0 mg/kg/injection, schedule: Q01DX009 (ip), vehicle: saline with Tween-80); 100 % of control under setting [4].
`C[C@@H]1C[C@H]2[C@@H]3CCC4=CC(=O)C=C[C@]4(C)[C@@]3(F)[C@@H](O)C[C@]2(C)[C@@]1(O)C(=O)CO`: the T/C runs as follows: under setting [5], 104 % of control; under setting [6], 109 % of control; (dose: 16.5 mg/kg/injection, schedule: Q04DX003 (ip), vehicle: saline) 112 % of control and 122 % of control; (dose: 25.0 mg/kg/injection, schedule: Q04DX003 (ip), vehicle: saline sonified) 110 % of control; (dose: 25.0 mg/kg/injection, schedule: Q04DX003 (ip), vehicle: saline) 100 % of control and 113 % of control; (dose: 37.5 mg/kg/injection, schedule: Q04DX003 (ip), vehicle: saline) 109 % of control and 112 % of control. The T/C is 110 % of control (dose: 50.0 mg/kg/injection, schedule: Q04DX003 (ip), vehicle: saline sonified); 90 % of control (dose: 50.0 mg/kg/injection, schedule: Q04DX003 (ip), vehicle: saline); 110 % of control (dose: 55.0 mg/kg/injection, schedule: Q04DX003 (ip), vehicle: saline); 119 % of control (dose: 85.0 mg/kg/injection, schedule: Q04DX003 (ip), vehicle: saline); 100 % of control (dose: 100.0 mg/kg/injection, schedule: Q04DX003 (ip), vehicle: saline sonified).
Regarding `CCCCOCN(COCCCC)c1cccc(Cl)c1`, the T/C is, setting by setting: under setting [7], 100 % of control; under setting [1], 106 % of control; under setting [3], 117 % of control.
In the case of `CC1(C)OCC2OC3(C(=O)O)OC(C)(C)OC3C2O1` (stereo not given), the T/C is 100 % of control (dose: 25.0 mg/kg/injection, schedule: Q01DX009 (ip), vehicle: water); 96 % of control (dose: 50.0 mg/kg/injection, schedule: Q01DX009 (ip), vehicle: water); 101 % of control (dose: 100.0 mg/kg/injection, schedule: Q01DX009 (ip), vehicle: water); 99 % of control (dose: 200.0 mg/kg/injection, schedule: Q01DX009 (ip), vehicle: water); 101 % of control (dose: 400.0 mg/kg/injection, schedule: Q01DX009 (ip), vehicle: water).
In the case of `CC(=O)NC(C)C(=O)NC(CC(=O)O)C(=O)O` (stereo not given), the T/C under setting [8] is 97 % of control; the T/C (dose: 100.0 mg/kg/injection, schedule: Q01DX005 (ip), vehicle: saline) is 100 % of control; the T/C (dose: 200.0 mg/kg/injection, schedule: Q01DX005 (ip), vehicle: saline) was 103 % of control.
Turning to `COc1cc2ccc(C(C)NCC(=O)O)cc2cc1OC` (stereo not given), the T/C runs as follows: (dose: 100.0 mg/kg/injection, schedule: Q01DX009 (ip), vehicle: Klucel (hydroxypropylcellulose) (HPC)) 100 % of control; under setting [2], 100 % of control; (dose: 200.0 mg/kg/injection, schedule: Q01DX009 (ip), vehicle: Klucel (hydroxypropylcellulose) (HPC)) 104 % of control; under setting [9], 100 % of control; (dose: 400.0 mg/kg/injection, schedule: Q01DX009 (ip), vehicle: Klucel (hydroxypropylcellulose) (HPC)) 109 % of control; under setting [4], 109 % of control.
On to `c1ccc(-c2c[nH]c(-c3ccccc3)c2)cc1`, for which the T/C is, setting by setting: under setting [2], 104 % of control; under setting [9], 109 % of control; under setting [4], 109 % of control.
Take `N#CN=C([S-])[S-].N#CN=C([S-])[S-].[Cu]`: the T/C is 104 % of control (dose: 0.39 mg/kg/injection, schedule: Q01DX001 (ip), vehicle: saline); 100 % of control (dose: 0.78 mg/kg/injection, schedule: Q01DX001 (ip), vehicle: saline); 100 % of control (dose: 1.56 mg/kg/injection, schedule: Q01DX001 (ip), vehicle: saline); 100 % of control (dose: 6.25 mg/kg/injection, schedule: Q01DX009 (ip), vehicle: saline); 86 % of control under setting [5]; 100 % of control under setting [6].
Regarding `C[CH2][Sn]([CH2]C)([O]S(=O)(=O)CC12CCC(CC1=O)C2(C)C)[O]S(=O)(=O)CC12CCC(CC1=O)C2(C)C`, the T/C (dose: 12.5 mg/kg/injection, schedule: Q01DX009 (ip), vehicle: saline) is 173 % of control and the T/C (dose: 25.0 mg/kg/injection, schedule: Q01DX009 (ip), vehicle: saline) is 195 % of control.
For the compound `NC(=S)N/N=C\c1ncccc1OCc1cccc(N)c1`, the T/C (dose: 25.0 mg/kg/injection, schedule: Q01DX009 (ip), vehicle: other) was 165 % of control; the T/C (dose: 50.0 mg/kg/injection, schedule: Q01DX009 (ip), vehicle: other) was 150 % of control; the T/C (dose: 100.0 mg/kg/injection, schedule: Q01DX009 (ip), vehicle: other) is 163 % of control; the T/C (dose: 200.0 mg/kg/injection, schedule: Q01DX009 (ip), vehicle: other) was 182 % of control.
On to `O=Cc1c2ccc(Cl)cc2nc2cc(Cl)ccc12`, for which the T/C (dose: 200.0 mg/kg/injection, schedule: Q01DX001 (ip), vehicle: saline with Tween-80) is 91 % of control.
For the compound `CC(C)(C)NCC(CN(CC(CNC(C)(C)C)C(=O)c1ccccc1)C(C)(C)C)C(=O)c1ccccc1` (stereo not given), the T/C (dose: 12.5 mg/kg/injection, schedule: Q04DX003 (ip), vehicle: Klucel (hydroxypropylcellulose) (HPC)) was 104 % of control; the T/C (dose: 25.0 mg/kg/injection, schedule: Q04DX003 (ip), vehicle: Klucel (hydroxypropylcellulose) (HPC)) is 104 % of control; the T/C (dose: 50.0 mg/kg/injection, schedule: Q04DX003 (ip), vehicle: Klucel (hydroxypropylcellulose) (HPC)) is 112 % of control.
Take `CN(C)CCCNC(=O)c1ccc2c(c1O)C(=O)c1ccccc1C2=O`: under setting [8], the T/C is 118 % of control.
For `Nc1ccn(CC(=O)c2cccs2)c(=O)n1`, the T/C is, setting by setting: (dose: 25.0 mg/kg/injection, schedule: Q01DX009 (ip), vehicle: saline with Tween-80) 100 % of control; under setting [7], 115 % of control; under setting [1], 100 % of control; under setting [10], 90 % of control; under setting [11], 95 % of control.
For `CCC(=O)Oc1c(Cl)c(Cl)c(C#N)c(Cl)c1Cl`, the T/C is, setting by setting: under setting [10], 108 % of control; under setting [11], 116 % of control.
In the case of `O=C(CC(=O)C(F)(F)F)c1ccc(-c2ccccc2)cc1`, the T/C by setting is: under setting [7], 110 % of control; under setting [1], 122 % of control.
